“And” between values parts separate entries of the source, which are not always exact repeats. Equal values may be shown once. Marks after values point to notes of the source that are not given here.
What was measured:
[1] = tested on: spontaneous fungal infections and ulcers; experiment: Mice with spontaneous fungal infections and ulcers, Gentiana violet with or without rhHGF; format: in vivo; details: local Gentiana violet once; the HGF mouse also rhHGF 10 ng subcutaneously
Description: Two mice (23-25 g) with spontaneous fungal infections and ulcers on their backs were shaved and treated locally with Gentiana violet once. One of them was simultaneously treated with hepatocyte growth factor (rhHGF) 10 ng subcutaneously. The hair growth was fine as in the other places of body, in the mouse that received HGF and fungicidal treatment. […] This example confirms the morphogenic effects of HGF in recovering after treated infectious injuries (see FIG. 7).

chronic leg ulcers [2] = format: in vivo, human
Description: HGF in gel form was applied locally once daily for seven days in 15 of 19 chronic leg ulcers in eleven elderly patients in a pilot study. All patients had previously been treated with conventional methods and their leg ulcers had been in a rather stable condition for between one and fourteen years. Any signs of allergy, discomfort or pain were reported daily.
(§1) Micro-circulation perfusion in ulcers compared to the intact contiguous skin was determined at the beginning, after one week and after three months (in 7 patients) and ulcer size and characteristics were also documented.
In contrast to the patients with unfavourable healing (non-responders) the healing process in the responders began during treatment and continued afterwards. There was a statistically significant correlation (r=0.94, p<0.002) between enhanced micro-circulation and ulcer area reduction in the treated ulcers. Simultaneously antibacterial treatment in the ulcers with signs of infection enhanced the therapy results considerably. […] Micro-circulatory perfusion, which might reflect the angiogenic effect of HGF, was positively correlated to ulcer area reduction. Local treatment by HGF seems to have positive effect on nearby, not locally treated, ulcers indicating systemic effects. […] HGF and representative antibacterial treatment have synergetic effects in treatment of chronic leg ulcers.

chronic leg ulcers [3] = experiment: Micro-circulatory perfusion in ulcers by laser Doppler (LDPI); format: in vivo, human
Description: The micro-circulation within the ulcers was measured using LDPI. The LDPI system (PIMLO, Lisca Development AB, Sweden) utilises the Doppler principle by freely impinging coherent laser light onto the tissue and processing the backscattered, Doppler broadened, light to estimate the tissue perfusion without touching the skin. The perfusion estimate is proportional to the product of the mean velocity and the concentration of the moving blood cells.
as §1

[4] = tested on: normal hairless skin in mice; experiment: Local rhHGF on shaved normal hairless skin in mice, hair growth; format: in vivo
Description: Eighteen black mice (14-16 weeks old and 21-29 g weight) were shaved on their back, causing two 1×1 cm patches on the right and left side. They were then divided into 3 groups. Group I (n=6, females), Group 2 (n=6 males) and Group 3 (n=6, 3 males and 3 females). Group 1 were treated locally on the right side by 0.70 μg/kg (12-18 ng/cm^2 hairless skin) recombinant human hepatocyte growth factor (rhHGF) daily in 10 days. In order to prepare HGF preparations, recombinant human HGF (rhHGF) was provided commercially from R&D systems Inc., Minneapolis, USA. Group 2 (n=6 males) received 0.35 μg/kg/day (5-10 ng/cm^2 hairless skin) on the right side in 10 days. Group 3, non-treated, served as the control group. […] Although some significant differences were not obviously seen in the hair growth under treatment we were surprised to see that the animals in Group 1 did show a full double-sided hair growth in 5 animals 2 days after the treatment was ended (day 12). The same process in Group 2 and group 3 did take much a longer time (day 20 and day 21, respectively).

CCL-53.1 = experiment: Restitution of scraped confluent monolayer; format: cell-based
Description: The confluent monolayer of CCL-53.1 was scraped off, forming long wounds. The area not covered by cells finally disappeared, and restitution (in control medium with 15% horse serum and 2.5 % FBS) was completed at 72 h. The addition of HGF together with the addition of antibiotic agent (streptomycin and penicillin) to the culture medium improved the restitution of the damaged area more rapidly than the control medium (10 times at 24 h) as well as to a medium including HGF without added antibiotic agents.

human skin fibroblasts = details: more than 1.0 ng/ml of HGF added to cultures media; cited from earlier work
[5] = contiguous non-treated ulcer in a locally treated patient, up to three months

**Q.** Which “Quality of hair growth” value [1] does the source give for `CN(C)c1ccc(C(=C2C=CC(=[N+](C)C)C=C2)c2ccc(N(C)C)cc2)cc1.[Cl-]` [Gentiana violet, reference compound] here?
**A.** Its value is “rough and irregular”.

**Q.** With “HGF: recombinant human HGF (rhHGF) provided commercially from R&D systems Inc., Minneapolis, USA” as the compound, how does the “Heal % (T), median” value (chronic leg ulcers [2]; 11 patients) read?
**A.** The value was 84%.

**Q.** And the “Heal % (NT), first listed non-treated ulcer” value (chronic leg ulcers [2]; [5])?
**A.** Its value is 100/100% and 100%.

**Q.** And the “Heal % (NT), second listed non-treated ulcer” value (chronic leg ulcers [2]; [5])?
**A.** Its value is 100/100% and 92%.

**Q.** And the “Signs of allergy or malignancy” value (chronic leg ulcers [2]; human, in vivo)?
**A.** Its value is “No signs of allergy or malignancy were observed”.

**Q.** What about the “Patients with complete or partial healing” value (chronic leg ulcers [2]; local HGF treatment, ulcers incurable for up to fourteen years) of the same compound?
**A.** The value was 8/11.

**Q.** And the “Cases with complete cure of ulcers” value (chronic leg ulcers [2]; local HGF with appropriate oral antibiotics at the same time)?
**A.** The value was “at least 4 cases”.

**Q.** What about the “Heal % (NT), mean, first listed ulcer” value (chronic leg ulcers [2]; non-treated ulcers) of the same compound?
**A.** Its value is 100%.

**Q.** And the “Heal % (NT), mean, second listed ulcer” value (chronic leg ulcers [2]; non-treated ulcers)?
**A.** The value was 96%.

**Q.** What about the “Heal % (NT), median, first listed ulcer” value (chronic leg ulcers [2]; non-treated ulcers) of the same compound?
**A.** Its value is 100%.

**Q.** What about the “Heal % (NT), median, second listed ulcer” value (chronic leg ulcers [2]; non-treated ulcers) of the same compound?
**A.** The value was 96%.

**Q.** What about the “Course of ulcer after superinfection with resistant bacteria” value (chronic leg ulcers [2]; one patient with venous insufficiency, no appropriate antibiotics (penicillin allergy)) of the same compound?
**A.** Its value is “the ulcer increased dramatically in size”.

**Q.** And the “Heal % (T), the two ulcers of patient 7 with different healing” value (chronic leg ulcers [2]; patient 7)?
**A.** Its value is “(59-88%)♦”.

**Q.** What about the “Heal % (T), mean” value (chronic leg ulcers [2]; sum of total area reduction divided by sum of total area, 11 patients) of the same compound?
**A.** The value was 78* %.

**Q.** And the “Ulcers with favourable healing (58-59%)” value (chronic leg ulcers [2]; treated ulcers)?
**A.** The value was “two”.

**Q.** And the “Ulcers with excellent healing (84-99%)” value (chronic leg ulcers [2]; treated ulcers, in four patients)?
**A.** Its value is “four”.

**Q.** And the “Ulcers with complete healing (100% area reduction)” value (chronic leg ulcers [2]; treated ulcers, in three patients)?
**A.** The value was 5/15.

**Q.** What about the “Ulcers with minimal improvement (25-30%) or relapse” value (chronic leg ulcers [2]; treated ulcers, three patients) of the same compound?
**A.** The value was “four”.

**Q.** What about the “Healing of the four contiguous non-treated ulcers” value (chronic leg ulcers [2]; two patients) of the same compound?
**A.** Its value is “three healed completely and one excellent”.

**Q.** And the “Circ (NT) ratio, mean” value (chronic leg ulcers [3]; non-treated ulcers)?
**A.** Its value is 0.9/ND ratio.

**Q.** What about the “Circ (NT) ratio, median” value (chronic leg ulcers [3]; non-treated ulcers) of the same compound?
**A.** Its value is 0.9/ND ratio.

**Q.** What about the “Circ (T) ratio, mean” value (chronic leg ulcers [3]; treated ulcers) of the same compound?
**A.** Its value is 1.12 ratio.

**Q.** And the “Circ (T) ratio, median” value (chronic leg ulcers [3]; treated ulcers)?
**A.** The value was 1.23 ratio.

**Q.** What about the “Circ (T) ratio: relative change in local microcirculation” value (chronic leg ulcers [3]; treated ulcers, before treatment vs one week later, one line per patient) of the same compound?
**A.** The value was 1.29 ratio and 1.23 ratio and 1.28 ratio and 0.77 ratio and 0.72 ratio and 0.97 ratio and 1.48 ratio.

**Q.** What about the “Signs of non-tolerance or diseases under or after treatment” value ([4]; 0.70 or 0.35 μg/kg/day locally, 10 days) of the same compound?
**A.** Its value is “None of the treated animals did show any sign of non-tolerance or diseases”.

**Q.** What about the “Day of full double-sided hair growth” value ([4]; Group 1: 0.70 μg/kg locally daily in 10 days, in 5 animals) of the same compound?
**A.** Its value is 12 days.

**Q.** And the “Day of full double-sided hair growth” value ([4]; Group 2: 0.35 μg/kg/day locally in 10 days)?
**A.** Its value is 20 days.

**Q.** What about the “Local dose that accelerates hair growth” value ([4]; normal hairless skin in mice) of the same compound?
**A.** The value was “not less than 0.7 μg/kg”.

**Q.** What about the “Quality of hair growth” value [1] of the same compound?
**A.** Its value is “fine”.

**Q.** And the “Restitution of the damaged area relative to control medium” value (CCL-53.1; HGF together with streptomycin and penicillin in the culture medium, at 24 h)?
**A.** The value was 10 times.

**Q.** And the “HGF concentration at which the effect is detectable” value (CCL-53.1; dose-dependent effect)?
**A.** Its value is at least 5 ng/mL.

**Q.** What about the DNA synthesis (human skin fibroblasts) of the same compound?
**A.** The DNA synthesis was “doubled”.

Source: patent US7601365B2, “Synergetic effects of HGF and antibacterial treatment” (Damavand Wound, AB, priority 2000, dated 2009)
